Measurements reported in ChEMBL document CHEMBL3351918 (Bioorg Med Chem, 2014).
The source made the active and inactive calls. The rule behind the calls is not given here.

Assays:
Butyrylcholinesterase = Butyrylcholinesterase (Rattus norvegicus, UniProt Q9JKC1); assay: Inhibition of BChE in rat serum using butyrylthiocholine iodide substrate incubated for 15 mins by UV spectroscopy based Ellman's method; format: cell-free
Acetylcholinesterase [1] = target: T1, Acetylcholinesterase (Rattus norvegicus, UniProt P37136); assay: Inhibition of AChE in rat cortex homogenates using acetylthiocholine iodide substrate incubated for 15 mins by UV spectroscopy based Ellman's method
T1 sequence (P37136 whole entry): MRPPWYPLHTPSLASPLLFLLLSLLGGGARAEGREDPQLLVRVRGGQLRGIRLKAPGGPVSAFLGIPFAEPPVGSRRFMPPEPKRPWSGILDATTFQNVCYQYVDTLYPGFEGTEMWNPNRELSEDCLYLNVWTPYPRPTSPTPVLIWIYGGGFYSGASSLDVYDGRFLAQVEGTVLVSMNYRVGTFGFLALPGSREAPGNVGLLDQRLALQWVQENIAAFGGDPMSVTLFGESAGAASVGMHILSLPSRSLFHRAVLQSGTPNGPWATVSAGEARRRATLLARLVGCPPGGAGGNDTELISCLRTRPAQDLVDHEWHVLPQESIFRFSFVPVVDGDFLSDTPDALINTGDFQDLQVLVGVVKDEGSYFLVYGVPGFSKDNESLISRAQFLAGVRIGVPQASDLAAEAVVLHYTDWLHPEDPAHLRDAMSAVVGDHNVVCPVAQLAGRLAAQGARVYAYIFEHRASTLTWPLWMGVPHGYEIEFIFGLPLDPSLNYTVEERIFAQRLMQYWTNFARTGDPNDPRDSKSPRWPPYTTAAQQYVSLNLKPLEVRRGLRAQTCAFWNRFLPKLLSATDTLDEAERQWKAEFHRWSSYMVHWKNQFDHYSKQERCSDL

[2] = Antioxidant activity assessed as ABTS radical cation scavenging activity; format: physicochemical
Acetylcholinesterase [3] = target: T1, Acetylcholinesterase; assay: Retention time in rat cortex homogenates at 1 mmol after 24 hrs by HPLC-MS method; format: ADME; details: tissue homogenate
Acetylcholinesterase [4] = target: T1, Acetylcholinesterase; assay: Prodrug activation in rat cortex homogenates treated with 1 mmol 2-Methoxy-4-(piperidin-1-ylmethyl)phenyl dimethylcarbamate assessed as AChE-mediated compound formation after 24 hrs by HPLC-MS method; format: ADME; details: tissue homogenate
[5] = Metal chelating activity assessed as inhibition of copper-mediated Amyloid beta (1 to 40) aggregation at 50 uM after 48 hrs by transmission electron microscopy; format: physicochemical
[6] = target: Butyrylcholinesterase (Rattus norvegicus) (UniProt Q9JKC1); assay: Potency index, ratio of IC50 for rivastigmine to IC50 for test compound against BChE in rat serum using butyrylthiocholine iodide substrate incubated for 15 mins by UV spectroscopy based Ellman's method; format: cell-free
[7] = target: Amyloid-beta precursor protein (Homo sapiens) (UniProt P05067); assay: Inhibition of Amyloid beta (1 to 40) (unknown origin) assessed as self-mediated fibril formation at 50 uM incubated for 48 hrs by transmission electron microscopy
Acetylcholinesterase [8] = target: T1, Acetylcholinesterase; assay: Prodrug activation in rat cortex homogenates assessed as AChE-mediated 2-methoxy-4-(piperidin-1-ylmethyl)phenol formation at 1 mmol after 24 hrs by HPLC-MS method; details: tissue homogenate

Amyloid-beta precursor protein (Homo sapiens), sequence (P05067 whole entry): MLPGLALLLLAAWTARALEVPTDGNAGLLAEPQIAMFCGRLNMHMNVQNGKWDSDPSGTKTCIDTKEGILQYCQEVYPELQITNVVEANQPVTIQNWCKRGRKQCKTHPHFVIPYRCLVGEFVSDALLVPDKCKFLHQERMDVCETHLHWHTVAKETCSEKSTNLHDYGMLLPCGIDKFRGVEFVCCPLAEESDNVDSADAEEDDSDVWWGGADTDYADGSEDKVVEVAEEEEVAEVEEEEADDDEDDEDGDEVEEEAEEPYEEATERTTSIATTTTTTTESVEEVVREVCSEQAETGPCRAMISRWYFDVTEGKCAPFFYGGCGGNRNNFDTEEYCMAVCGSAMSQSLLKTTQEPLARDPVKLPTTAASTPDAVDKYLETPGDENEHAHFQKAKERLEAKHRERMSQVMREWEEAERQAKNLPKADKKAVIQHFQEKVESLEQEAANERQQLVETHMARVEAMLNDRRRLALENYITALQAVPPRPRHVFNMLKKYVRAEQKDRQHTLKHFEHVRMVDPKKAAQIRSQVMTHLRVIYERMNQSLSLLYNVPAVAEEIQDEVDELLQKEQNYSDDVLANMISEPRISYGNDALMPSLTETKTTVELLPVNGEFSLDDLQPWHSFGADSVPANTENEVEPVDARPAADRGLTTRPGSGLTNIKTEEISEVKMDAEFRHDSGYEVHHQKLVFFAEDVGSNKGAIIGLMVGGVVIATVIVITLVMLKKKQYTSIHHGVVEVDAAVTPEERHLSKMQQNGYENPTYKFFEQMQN
Butyrylcholinesterase, sequence (Q9JKC1 whole entry): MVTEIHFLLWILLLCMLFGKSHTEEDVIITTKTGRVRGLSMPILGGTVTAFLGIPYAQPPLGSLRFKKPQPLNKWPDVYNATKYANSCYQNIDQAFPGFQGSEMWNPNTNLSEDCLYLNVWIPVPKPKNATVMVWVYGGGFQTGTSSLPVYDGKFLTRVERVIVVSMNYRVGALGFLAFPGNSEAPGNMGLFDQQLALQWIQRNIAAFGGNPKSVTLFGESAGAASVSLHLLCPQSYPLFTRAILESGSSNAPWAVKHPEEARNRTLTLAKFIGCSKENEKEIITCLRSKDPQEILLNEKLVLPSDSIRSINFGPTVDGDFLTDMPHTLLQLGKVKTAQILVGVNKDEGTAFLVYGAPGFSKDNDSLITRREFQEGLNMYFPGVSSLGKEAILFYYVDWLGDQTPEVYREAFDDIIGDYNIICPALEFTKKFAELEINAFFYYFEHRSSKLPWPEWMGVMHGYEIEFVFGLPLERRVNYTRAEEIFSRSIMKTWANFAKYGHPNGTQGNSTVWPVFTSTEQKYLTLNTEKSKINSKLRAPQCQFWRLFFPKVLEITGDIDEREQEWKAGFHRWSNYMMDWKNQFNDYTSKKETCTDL
Butyrylcholinesterase (Rattus norvegicus), sequence (Q9JKC1 as listed by the source): as the sequence (Q9JKC1 whole entry) above

`CCN(CC)Cc1ccc(OC(=O)N(C)C)c(OC)c1` gave an IC50 (Butyrylcholinesterase) of 35 nM and an IC50 (Acetylcholinesterase [1]) of 110 nM.
For `CCN(CC)C(C)c1ccc(OC(=O)N(C)C)c(OC)c1` (stereo not given), the IC50 (Butyrylcholinesterase) was 63 nM and the IC50 (Acetylcholinesterase [1]) was 240 nM.
Compound `COc1cc(C(C)N2CCCC2)ccc1OC(=O)N(C)C` (stereo not given) has an IC50 (Butyrylcholinesterase) of 18 nM and an IC50 (Acetylcholinesterase [1]) of 190 nM.
`COc1ccc(C(C)N2CCOCC2)cc1OC(=O)N(C)C` (stereo not given) gave an IC50 (Butyrylcholinesterase) of 270 nM and an IC50 (Acetylcholinesterase [1]) of 23300 nM.
In the case of `COc1cc(CN2CCOCC2)ccc1OC(=O)N(C)C`, the IC50 (Butyrylcholinesterase) is reported as 430 nM and the IC50 (Acetylcholinesterase [1]) is reported as 1710 nM.
For `COc1ccc(CN2CCOCC2)cc1OC(=O)N(C)C`, the IC50 (Butyrylcholinesterase) was 120 nM and the IC50 (Acetylcholinesterase [1]) was 20800 nM.
For `COc1ccc2[nH]cc(CCNC(C)=O)c2c1` [MELATONIN], the IC50 [2] was 1920 nM and the “inhibition (INH)” value [2] was “Dose-dependent effect”.
With `COc1cc(C(C)N2CCOCC2)ccc1OC(=O)N(C)C` (stereo not given) the IC50 (Butyrylcholinesterase) was 310 nM and the IC50 (Acetylcholinesterase [1]) was 4980 nM.
In the case of `COc1cc(CN2CCCC2)ccc1OC(=O)N(C)C`, the IC50 (Butyrylcholinesterase) is reported as 12 nM and the IC50 (Acetylcholinesterase [1]) is reported as 130 nM.
`COc1cccc(CN2CCCCC2)c1OC(=O)N(C)C` showed an IC50 (Butyrylcholinesterase) of 3130 nM and an IC50 (Acetylcholinesterase [1]) of 22700 nM.
With `COc1cc(CN2CCCCC2)ccc1O` the Retention_time (Acetylcholinesterase [3]) was 5.5 min, the IC50 [2] was 2910 nM and the “inhibition (INH)” value [2] was “Dose-dependent effect”. The Drug metabolism (Acetylcholinesterase [4]) was “metabolite_detected” and the “inhibition (INH)” value [5] was “Active”.
In the case of `COc1cc(C(C)N2CCCCC2)ccc1OC(=O)N(C)C` (stereo not given), the IC50 (Butyrylcholinesterase) is reported as 8 nM, the Ratio IC50 [6] is reported as 40 and the inhibition [7] is reported as “Active”. The IC50 (Acetylcholinesterase [1]) was 110 nM.
With `COc1cc(CN2CCCCC2)ccc1OC(=O)N(C)C` the IC50 (Butyrylcholinesterase) was 24 nM, the Retention_time (Acetylcholinesterase [3]) was 6.84 min and the Drug metabolism (Acetylcholinesterase [8]) was “metabolite_detected”. For the same compound, the inhibition [7] was “Active” and the IC50 (Acetylcholinesterase [1]) was 97 nM.
For `CCN(CC)C(C)c1ccc(OC)c(OC(=O)N(C)C)c1` (stereo not given), the IC50 (Butyrylcholinesterase) was 130 nM and the IC50 (Acetylcholinesterase [1]) was 2770 nM.
In the case of `COc1cc(/C=C/C(=O)CC(=O)/C=C/c2ccc(O)c(OC)c2)ccc1O`, the inhibition [7] is reported as “Active”.
For `COc1ccc(C(C)N2CCCC2)cc1OC(=O)N(C)C` (stereo not given), the IC50 (Butyrylcholinesterase) was 82 nM and the IC50 (Acetylcholinesterase [1]) was 1920 nM.
In the case of `COc1ccc(C(C)N2CCCCC2)cc1OC(=O)N(C)C` (stereo not given), the IC50 (Butyrylcholinesterase) is reported as 34 nM and the IC50 (Acetylcholinesterase [1]) is reported as 1420 nM.
With `CCN(C)C(=O)Oc1cccc([C@H](C)N(C)C)c1` the inhibition [7] was “inactive”.
With `CCN(CC)Cc1ccc(OC)c(OC(=O)N(C)C)c1` the IC50 (Butyrylcholinesterase) was 79 nM and the IC50 (Acetylcholinesterase [1]) was 1480 nM.
With `COc1ccc(CN2CCCC2)cc1OC(=O)N(C)C` the IC50 (Butyrylcholinesterase) was 29 nM and the IC50 (Acetylcholinesterase [1]) was 2870 nM.
With `COc1ccc(CN2CCCCC2)cc1OC(=O)N(C)C` the IC50 (Butyrylcholinesterase) was 10 nM, the Ratio IC50 [6] was 40 and the inhibition [7] was “Active”. For the same compound, the IC50 (Acetylcholinesterase [1]) was 660 nM.
